In paper PMC11525196 (Nature, 2024) one finds Kd and BRET50 data, which are given here for two molecules.

For assay [1], the target named is T1, LYCHOS (GPR155) (Homo sapiens, UniProt Q7Z3F1).
T1 sequence (Q7Z3F1 1-870): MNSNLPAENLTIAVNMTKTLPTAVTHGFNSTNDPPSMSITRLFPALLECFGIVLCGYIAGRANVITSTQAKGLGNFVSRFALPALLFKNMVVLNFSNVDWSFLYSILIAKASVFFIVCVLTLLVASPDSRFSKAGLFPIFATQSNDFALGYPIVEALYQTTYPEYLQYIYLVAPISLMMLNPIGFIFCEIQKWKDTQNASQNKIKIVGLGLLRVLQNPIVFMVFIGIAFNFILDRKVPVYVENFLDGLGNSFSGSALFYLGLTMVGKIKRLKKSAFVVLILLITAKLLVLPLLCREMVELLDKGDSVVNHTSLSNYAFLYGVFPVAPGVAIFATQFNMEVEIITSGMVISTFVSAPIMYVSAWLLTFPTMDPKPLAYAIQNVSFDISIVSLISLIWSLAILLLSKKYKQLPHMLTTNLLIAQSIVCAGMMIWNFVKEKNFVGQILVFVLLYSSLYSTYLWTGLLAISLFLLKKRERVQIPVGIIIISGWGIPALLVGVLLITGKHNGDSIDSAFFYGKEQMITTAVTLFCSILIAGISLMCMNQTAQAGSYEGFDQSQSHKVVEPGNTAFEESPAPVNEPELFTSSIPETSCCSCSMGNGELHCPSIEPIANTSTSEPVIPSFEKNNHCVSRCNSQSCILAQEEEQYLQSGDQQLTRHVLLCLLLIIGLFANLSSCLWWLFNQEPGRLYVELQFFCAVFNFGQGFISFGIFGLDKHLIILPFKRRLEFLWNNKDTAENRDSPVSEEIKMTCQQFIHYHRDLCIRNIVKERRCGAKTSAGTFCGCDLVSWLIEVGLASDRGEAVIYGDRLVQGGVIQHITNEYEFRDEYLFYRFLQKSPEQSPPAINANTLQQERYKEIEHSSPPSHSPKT
In words: SPR steady-state affinity. Type of assay: binding.

The target of assay [2] is T2, LYCHOS (GPR155) (Homo sapiens, UniProt Q7Z3F1, L177W).
T2 sequence (Q7Z3F1 1-870 L177W): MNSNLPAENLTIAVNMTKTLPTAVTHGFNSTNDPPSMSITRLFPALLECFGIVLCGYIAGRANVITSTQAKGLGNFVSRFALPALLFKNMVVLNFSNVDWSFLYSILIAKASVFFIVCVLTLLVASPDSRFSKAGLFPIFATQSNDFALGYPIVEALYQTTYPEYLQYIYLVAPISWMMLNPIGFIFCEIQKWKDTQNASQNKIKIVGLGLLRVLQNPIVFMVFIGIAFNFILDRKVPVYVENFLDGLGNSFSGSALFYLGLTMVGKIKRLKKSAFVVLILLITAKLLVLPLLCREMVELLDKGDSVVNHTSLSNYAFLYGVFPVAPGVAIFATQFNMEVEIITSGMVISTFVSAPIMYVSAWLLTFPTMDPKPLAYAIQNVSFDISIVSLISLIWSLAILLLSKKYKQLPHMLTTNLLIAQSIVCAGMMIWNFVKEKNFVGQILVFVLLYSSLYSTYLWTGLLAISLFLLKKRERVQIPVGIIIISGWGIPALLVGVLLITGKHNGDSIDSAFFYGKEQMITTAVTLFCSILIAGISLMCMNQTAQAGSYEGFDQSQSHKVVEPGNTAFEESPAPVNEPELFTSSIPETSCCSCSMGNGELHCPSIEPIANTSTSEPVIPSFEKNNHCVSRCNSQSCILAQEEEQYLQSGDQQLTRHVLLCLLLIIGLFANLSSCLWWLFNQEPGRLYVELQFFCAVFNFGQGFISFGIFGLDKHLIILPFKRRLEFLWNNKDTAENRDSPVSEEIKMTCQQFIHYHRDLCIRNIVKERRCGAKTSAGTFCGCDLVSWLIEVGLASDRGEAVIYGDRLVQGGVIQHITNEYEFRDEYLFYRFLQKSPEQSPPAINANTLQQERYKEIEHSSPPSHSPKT
As to the kind of experiment: SPR steady-state affinity. Type of assay: binding.

In assay [3] the target is T3, LYCHOS (GPR155) (Homo sapiens, UniProt Q7Z3F1, A148W).
T3 sequence (Q7Z3F1 1-870 A148W): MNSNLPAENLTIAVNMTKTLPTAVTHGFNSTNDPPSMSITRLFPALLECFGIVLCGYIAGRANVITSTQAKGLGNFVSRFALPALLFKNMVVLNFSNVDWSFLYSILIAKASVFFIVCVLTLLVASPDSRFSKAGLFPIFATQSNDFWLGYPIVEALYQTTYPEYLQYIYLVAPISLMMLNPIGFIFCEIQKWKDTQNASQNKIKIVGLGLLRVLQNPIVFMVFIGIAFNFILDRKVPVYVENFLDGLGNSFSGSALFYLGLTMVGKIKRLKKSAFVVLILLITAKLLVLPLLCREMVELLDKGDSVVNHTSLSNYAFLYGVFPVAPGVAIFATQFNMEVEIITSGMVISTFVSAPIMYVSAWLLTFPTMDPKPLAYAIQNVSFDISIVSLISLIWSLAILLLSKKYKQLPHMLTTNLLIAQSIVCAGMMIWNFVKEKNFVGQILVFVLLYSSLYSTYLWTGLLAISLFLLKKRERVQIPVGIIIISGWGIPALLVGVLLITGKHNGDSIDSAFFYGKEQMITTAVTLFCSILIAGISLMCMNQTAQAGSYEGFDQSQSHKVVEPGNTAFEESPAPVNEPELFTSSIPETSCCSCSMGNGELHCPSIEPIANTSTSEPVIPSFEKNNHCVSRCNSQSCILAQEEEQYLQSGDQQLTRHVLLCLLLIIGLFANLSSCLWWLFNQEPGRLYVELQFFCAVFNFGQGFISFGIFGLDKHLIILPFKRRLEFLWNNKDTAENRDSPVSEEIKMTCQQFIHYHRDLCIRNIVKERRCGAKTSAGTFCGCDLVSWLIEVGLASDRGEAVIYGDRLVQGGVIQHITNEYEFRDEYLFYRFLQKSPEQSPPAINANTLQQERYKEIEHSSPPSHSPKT
As to the kind of experiment: SPR steady-state affinity. In kind it is binding.

The target of assay [4] is T4, LYCHOS (GPR155) (Homo sapiens, UniProt Q7Z3F1, N145A).
T4 sequence (Q7Z3F1 1-870 N145A): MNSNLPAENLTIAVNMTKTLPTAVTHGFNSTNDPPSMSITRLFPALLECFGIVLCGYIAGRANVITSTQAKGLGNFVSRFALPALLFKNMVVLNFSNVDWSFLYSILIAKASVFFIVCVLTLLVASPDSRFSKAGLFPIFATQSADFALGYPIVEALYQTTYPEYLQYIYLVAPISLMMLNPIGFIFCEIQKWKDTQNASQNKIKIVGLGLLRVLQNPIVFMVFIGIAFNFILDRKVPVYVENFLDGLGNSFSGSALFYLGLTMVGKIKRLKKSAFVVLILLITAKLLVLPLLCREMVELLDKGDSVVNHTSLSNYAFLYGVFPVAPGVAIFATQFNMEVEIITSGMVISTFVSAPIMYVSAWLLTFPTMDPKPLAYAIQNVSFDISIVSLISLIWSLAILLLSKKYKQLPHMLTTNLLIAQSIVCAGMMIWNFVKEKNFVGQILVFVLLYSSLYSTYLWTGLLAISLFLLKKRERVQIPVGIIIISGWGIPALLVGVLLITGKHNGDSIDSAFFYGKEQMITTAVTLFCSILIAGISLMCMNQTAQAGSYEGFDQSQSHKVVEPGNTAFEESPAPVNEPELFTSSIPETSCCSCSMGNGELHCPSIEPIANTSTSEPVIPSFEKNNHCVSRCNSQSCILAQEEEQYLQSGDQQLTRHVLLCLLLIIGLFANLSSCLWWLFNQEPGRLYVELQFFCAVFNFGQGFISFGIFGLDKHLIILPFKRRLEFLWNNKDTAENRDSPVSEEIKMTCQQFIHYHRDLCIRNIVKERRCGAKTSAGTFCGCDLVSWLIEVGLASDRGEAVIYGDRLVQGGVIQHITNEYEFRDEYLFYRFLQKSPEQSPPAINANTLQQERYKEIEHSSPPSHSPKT
As to the kind of experiment: SPR steady-state affinity. In kind it is binding.

Assay [5] has as its target T5, LYCHOS(N145A)-Flag-NLuc (human, UniProt Q7Z3F1 1-870, N145A).
T5 sequence: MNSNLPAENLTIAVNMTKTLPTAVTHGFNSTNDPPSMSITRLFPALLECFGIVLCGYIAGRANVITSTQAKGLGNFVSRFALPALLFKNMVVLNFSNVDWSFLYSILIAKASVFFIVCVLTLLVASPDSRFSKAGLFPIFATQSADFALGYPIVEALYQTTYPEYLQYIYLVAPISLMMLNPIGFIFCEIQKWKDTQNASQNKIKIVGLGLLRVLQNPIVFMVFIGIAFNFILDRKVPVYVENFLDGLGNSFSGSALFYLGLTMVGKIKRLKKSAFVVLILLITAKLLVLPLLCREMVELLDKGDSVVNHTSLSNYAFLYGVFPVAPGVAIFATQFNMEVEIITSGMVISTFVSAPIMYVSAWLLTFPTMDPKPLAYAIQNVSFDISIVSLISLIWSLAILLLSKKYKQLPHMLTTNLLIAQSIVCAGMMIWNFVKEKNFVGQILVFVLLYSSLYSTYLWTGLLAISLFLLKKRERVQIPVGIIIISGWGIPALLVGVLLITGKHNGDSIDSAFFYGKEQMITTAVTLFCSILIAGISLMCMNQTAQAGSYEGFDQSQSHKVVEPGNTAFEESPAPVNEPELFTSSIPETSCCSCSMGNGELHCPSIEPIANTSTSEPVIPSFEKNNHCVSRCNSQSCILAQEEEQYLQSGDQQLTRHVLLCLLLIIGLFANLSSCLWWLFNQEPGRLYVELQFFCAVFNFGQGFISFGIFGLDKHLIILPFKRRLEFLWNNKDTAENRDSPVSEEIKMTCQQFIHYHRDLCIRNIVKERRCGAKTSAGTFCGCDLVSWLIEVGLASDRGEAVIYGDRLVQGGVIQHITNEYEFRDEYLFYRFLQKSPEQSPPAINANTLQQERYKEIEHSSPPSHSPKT
As to the kind of experiment: FRET or BRET.

For assay [6], the target named is T6, LYCHOS(F352A/W678R/N145A)-Flag-NLuc (human, UniProt Q7Z3F1 1-870, F352A | W678R | N145A).
T6 sequence: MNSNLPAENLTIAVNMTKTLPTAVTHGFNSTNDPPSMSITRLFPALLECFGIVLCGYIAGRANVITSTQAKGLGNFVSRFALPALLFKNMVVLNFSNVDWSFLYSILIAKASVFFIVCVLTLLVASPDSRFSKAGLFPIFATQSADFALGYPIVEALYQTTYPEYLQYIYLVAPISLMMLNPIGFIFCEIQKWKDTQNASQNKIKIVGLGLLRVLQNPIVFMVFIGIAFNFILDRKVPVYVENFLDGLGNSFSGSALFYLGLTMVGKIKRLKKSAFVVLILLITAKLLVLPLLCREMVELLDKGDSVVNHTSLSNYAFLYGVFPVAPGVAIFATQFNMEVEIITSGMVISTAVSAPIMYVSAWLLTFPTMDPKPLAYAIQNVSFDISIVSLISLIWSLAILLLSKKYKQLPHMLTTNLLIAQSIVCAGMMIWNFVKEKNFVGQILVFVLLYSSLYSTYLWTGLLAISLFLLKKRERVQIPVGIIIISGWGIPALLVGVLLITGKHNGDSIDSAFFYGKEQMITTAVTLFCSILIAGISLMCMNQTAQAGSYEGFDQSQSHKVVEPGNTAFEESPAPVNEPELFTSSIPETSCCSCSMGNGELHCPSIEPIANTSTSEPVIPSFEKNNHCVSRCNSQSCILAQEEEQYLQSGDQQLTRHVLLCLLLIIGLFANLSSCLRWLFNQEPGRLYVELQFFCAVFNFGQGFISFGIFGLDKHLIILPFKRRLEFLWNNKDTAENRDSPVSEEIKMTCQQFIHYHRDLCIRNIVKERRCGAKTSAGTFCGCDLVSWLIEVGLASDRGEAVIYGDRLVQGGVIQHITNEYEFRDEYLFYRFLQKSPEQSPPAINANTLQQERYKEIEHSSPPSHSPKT
In words: FRET or BRET. (In general: In BRET a luciferase serves as donor, and the signal depends on an acceptor being close.)

`O=C(O)Cc1c[nH]c2ccccc12` [IAA, Indole-3-acetic acid]: the Kd in assay [1] is 1.62 mM; in assay [2], 3.93 mM; in assay [3], 3.38 mM; in assay [4] it was 5.49 mM.

B1: HA-cpmCitrine-NPRL2 (natural protein, UniProt Q8WTW4 1-380, looked up)
chain: MGSGCRIECIFFSEFHPTLGPKITYQVPEDFISRELFDTVQVYIITKPELQNKLITVTAMEKKLIGCPVCIEHKKYSRNALLFNLGFVCDAQAKTCALEPIVKKLAGYLTTLELESSFVSMEESKQKLVPIMTILLEELNASGRCTLPIDESNTIHLKVIEQRPDPPVAQEYDVPVFTKDKEDFFNSQWDLTTQQILPYIDGFRHIQKISAEADVELNLVRIAIQNLLYYGVVTLVSILQYSNVYCPTPKVQDLVDDKSLQEACLSYVTKQGHKRASLRDVFQLYCSLSPGTTVRDLIGRHPQQLQHVDERKLIQFGLMKNLIRRLQKYPVRVTREEQSHPARLYTGCHSYDEICCKTGMSYHELDERLENDPNIIICWK
With B1, the BRET50 was 0.23 ± 0.06 in assay [5] and 0.03 ± 0.01 in assay [6].

By Kd is commonly meant the concentration at which binding is half-saturated.
